In patent US20100255580A1, “Differentiation of Human Embryonic Stem Cells” (LIFESCCAN, INC., priority 2007, published 2010):

Key:
[1] = test system: H9P49 embryonic stem cells; assay: Real-time PCR of pancreatic endoderm markers, evaluation of retinoic acid analogues; type: cell-based, human
Protocol: At day 5, cells were collected for evaluation by FACS and real-time PCR. […] The resulting definitive endoderm cells at day 5 were exposed to the following media conditions to induce pancreatic endoderm formation: culturing in DMEM/F 12 media supplemented with 2% FBS and 1 μM all-trans retinoic acid (RA) (Catalog#R2625, Sigma, MO), or 0.1-10 μM AM-580 (4-[(5,6,7,8-Tetrahydro-5,5,8,8-tetramethyl-2-naphthalenyl)carboxamido]benzoic acid, Catalog #A8843, Sigma, MO), or 0.1-1 μM TTNPB (4-[(E)-2-(5,6,7,8-Tetrahydro-5,5,8,8-tetramethyl-2-naphthalenyl)-1-propenyl]benzoic acid Arotinoid acid, Catalog #T3757, Sigma, MO) for 3 days. AM-580 and TTNPB are retinoic acid analogs with affinity for retinoic acid receptors. RA treatment was followed by additional three day treatment in DMEM/F12 media supplemented with 2% FBS and 20-50 ng/ml bFGF (Catalog #F0291, Sigma, MO).

[2] = test system: human embryonic stem cell line H1; assay: Real-time PCR of definitive endoderm markers, H1 on human serum or […] (Examples 30, 31, 35); type: cell-based
Protocol: Cultures of the human embryonic stem cell line H1 at passage 55 were grown and differentiated on human serum (Sigma, #H1388, MO) coated plates. 0.5 ml of human serum was added to each well of 6 well tissue culture treated dish, incubated for 1 hr at room temperature, and aspirated before adding human embryonic stem cells. After cells reached 80% confluency, they were treated as follows: 2 days 0.5% FBS containing 10 ng/ml mouse recombinant Wnt3a (R&D) or 100 nM GSK-3B inhibitor IX (Catalog #361550, Calbiochem, CA) and 100 ng/mlActivin A (R&D). This was followed by 3 days 2% FBS plus 100 ng/mlActivin A. Cultures were then analyzed by real-time PCR (FIG. 46, panels a & b). […] These findings parallel our findings for human embryonic stem cells cultured on […]™ or human fibronectin coated plates.
The effectiveness of a number of commercially available GSK-3B inhibitors was evaluated in formation of DE from human embryonic stem cells. The following GSK-3B inhibitors were evaluated at 100 nM: GSK-3B inhibitor VIII (Catalog #361549, Calbiochem, CA), GSK-3B inhibitor IX (Catalog #361550, Calbiochem, CA), GSK-3B inhibitor XI (Catalog #361553, Calbiochem, CA), GSK-3B inhibitor XII (Catalog #361554, Calbiochem, CA). […] Control cultures were treated with low serum plus high dose of AA. FIG. 47, panels a and b depicts the gene expression of definitive endoderm markers at day 5. GSK-3B inhibitor IX and XI were both effective in inducing DE formation as compared to GSK-3B inhibitor VIII and XII.
The following combinations of WNT1+AA were tested:
a) 20 ng/ml of WNT1+100 ng/ml AA in 0.5% FBS+DM-F12 for days 1-2 followed by 2% FBS+DM-F12+100 ng/ml AA for day three, b) 20 ng/ml of WNT1+100 ng/ml AA in 0.5% FBS+DM-F12 for days 1-2 followed by 2% FBS+DM-F12+100 ng/ml AA for days 3-5, c) 10 ng/ml of WNT1+100 ng/ml AA in 0.5% FBS+DM-F12 for days 1-2 followed by 2% FBS+DM-F12+100 ng/ml AA for day three, d) 10 ng/ml of WNT1+100 ng/ml AA in 0.5% FBS+DM-F12 for days 1-2 followed by 2% FBS+DM-F12+100 ng/ml AA for days 3-5, e) 20 ng/ml of WNT1+100 ng/ml AA in 0.5% FBS+DM-F12 for days 1-2 followed by 2% FBS+DM-F12+100 ng/ml AA+20 ng/ml of WNT1 for day three, f) 20 ng/ml of WNT1+100 ng/ml AA in 0.5% FBS+DM-F12 for days 1-2 followed by 2% FBS+DM-F12+100 ng/ml AA+20 ng/ml of WNT1 for days 3-5.

[3] = test system: human embryonic stem cell line H9; assay: Real-time PCR of marker gene expression, H9 on MEF (Examples 2-7); type: cell-based
Protocol: Cells were harvested at the time points indicated in FIG. 3 and assayed by PCR for the expression of genes shown (FIGS. 3, 4 and 5).
After this time interval, the cells were then treated for six days with combinations of retinoic acid and FGF as outlined in Example 2, then the culture medium was removed and replaced with medium comprising DMEM/F12 with 2% FBS, containing the γ-secretase inhibitors L-685,458 at 10 μM for three days.
Cells were continuously cultured for another 3 to 5 days in basal medium with retinoic acid at 1 μM, alone or with bFGF. RNA samples were harvested from cells at various time points along this process to help evaluate the directed differentiation of the cells. Furthermore, culture medium and factors were regularly removed and replenished throughout the differentiation protocol.
RNA extraction, purification, and cDNA synthesis. RNA samples were purified by binding to a silica-gel membrane (Rneasy Mini Kit, Qiagen, CA) in the presence of an ethanol-containing, high-salt buffer followed by washing to remove contaminants. The RNA was further purified using a TURBO DNA-free kit (Ambion, INC), and high-quality RNA was then eluted in water. Yield and purity were assessed by A260 and A280 readings on a spectrophotometer. cDNA copies were made from purified RNA using an ABI (ABI, CA) high capacity cDNA archive kit.
Real-time PCR amplification and quantitative analysis.
Final data were expressed relative to a calibrator sample.

[4] = test system: pancreatic endoderm cells derived from human embryonic stem cells; assay: Passage and expansion of pancreatic endoderm cells in culture; type: cell-based; conditions: 50 ng/ml FGF10; 6 day culture period
Protocol: The low serum DMEM/F12 contained 0% (v/v) fetal bovine serum (FBS) on day 1, 0.5% (v/v) FBS on day two and 2% (v/v) FBS on each day thereafter. After four days of differentiation, the cells were cultured in low serum DMEM/F12 contained 2% (v/v) FBS, 1 μM retinoic acid and 50 ng/ml bFGF for a total of six more days. After the six days of differentiation, the cells were maintained in culture in low serum DMEM/F12 contained 2% (v/v) FBS in the presence of 50 ng/ml FGF10 for a total of 6 days. During the six-day culture period, the pancreatic endoderm cells were passaged twice and cell population-doubling time is about 36 to 48 hours during this 6-day culture. On days 0, 3, and 6 of culture, Q-PCR was used to measure the expression of marker genes indicative of pancreatic endoderm.

[5] = 1 μM RA followed by exposure to bFGF

CC1(C)CCC(C)(C)c2cc(C(=O)Nc3ccc(C(=O)O)cc3)ccc21 [AM-580, 4-[(5,6,7,8-Tetrahydro-5,5,8,8-tetramethyl-2-naphthalenyl)carboxamido]benzoic acid]
AFP and CDX-2 expression ([1]; 10 μM AM-580): suppressed | expression of PDX-1 ([1]; 10 μM AM-580): high expression

O=C1NC(=O)C(c2cn(CCCO)c3ncccc23)=C1c1cnccn1 [GSK-3B inhibitor XI]
inducing DE formation ([2]; H1P54 on MATRIGEL, 100 nM for first two days, compared to GSK-3B inhibitor VIII and XII): effective

CC1=C(/C=C/C(C)=C/C=C/C(C)=C/C(=O)O)C(C)(C)CCC1 [retinoic acid, all-trans retinoic acid, reference compound]
expression of GLUT-2 and PTF1a ([3]; 1 μM retinoic acid and bFGF in the absence of activin A): increase | expression of Pdx1 ([3]; activin A or retinoic acid alone): did not induce | expression of α-fetoprotein (AFP) and albumin ([3]; retinoic acid and FGF-4 for five days after 7 days activin A): further increased | level of Pdx1 expression versus activin A treatment alone for 5 days ([3]; three days activin A, then 5 days 1 μM retinoic acid and 50 ng/ml bFGF in the absence of activin A): approximately 3500 fold | foregut endoderm markers, such as CDX-2 and AFP [1, 5]: robust expression | pancreatic endoderm markers, such as PDX-1 [1, 5]: significantly upregulates

B1: FGF10: member of the fibroblast growth factor family (protein, UniProt O15520 38-208, looked up)
Fibroblast growth factor 10: QALGQDMVSPEATNSSSSSFSSPSSAGRHVRSYNHLQGDVRWRKLFSFTKYFLKIEKNGKVSGTKKENCPYSILEITSVEIGVVAVKAINSNYYLAMNKKGKLYGSKEFNNDCKLKERIEENGYNTYASFNWQHNGRQMYVALNGKGAPRRGQKTRRKNTSAHFLPMVVHS
expression of the pancreatic endoderm marker Pdx1 [4]: maintained expression

B2: Wnt-1: Wnt ligand (PeproTech, NJ, Catalogue #120-17) (protein, UniProt P04628 28-370, looked up)
Proto-oncogene Wnt-1: ANSSGRWWGIVNVASSTNLLTDSKSLQLVLEPSLQLLSRKQRRLIRQNPGILHSVSGGLQSAVRECKWQFRNRRWNCPTAPGPHLFGKIVNRGCRETAFIFAITSAGVTHSVARSCSEGSIESCTCDYRRRGPGGPDWHWGGCSDNIDFGRLFGREFVDSGEKGRDLRFLMNLHNNEAGRTTVFSEMRQECKCHGMSGSCTVRTCWMRLPTLRAVGDVLRDRFDGASRVLYGNRGSNRASRAELLRLEPEDPAHKPPSPHDLVYFEKSPNFCTYSGRLGTAGTAGRACNSSSPALDGCELLCCGRGHRTRTQRVTERCNCTFHWCCHVSCRNCTHTRVLHECL
definitive endoderm markers (Bry, CXCR4, GSC, SOX17, HNF-3B, and GATA-4) ([2]; H1P55 on MATRIGEL, 20 ng/ml Wnt1 with 100 ng/ml of AA): significant upregulation
